The results in this text go back to patent US11773137B2, “Arid5a peptide inhibitors” (KING FAISAL UNIVERSITY, priority 2019, dated 2023).

In this series the test system is polarized Th17 cells. Briefly: IL-17 production by naïve CD4+ T cells cultured under Th17-polarizing conditions. Format: cell-based. The following applies: PIA at 15, 30 and 45 μM. On the procedure:
Naïve CD4^+ T cells were isolated from the spleen using MACS® CD4^+CD62L^+ isolation kit (Miltenyi Biotec). The isolated CD4^+CD62L^+ T cells were cultured in the presence of anti-CD3/CD28 dynabeads (Invitrogen), IL-6 (30 ng/mL; R&D Systems), transforming growth factor TGF-β1 (4 ng/mL; R&D Systems), anti-interferon IFN-γ and anti-IL-4 (10 μg/mL; Biolegend) for 72 h.
The intensities of Arid5a immunoblot bands and IL-17 concentrations are presented as mean±SD from at least three independent experiments produced similar results. The statistical significance between mean values was tested by one-way ANOVA. *p<0.05 was considered significant.
Arid5a plays an important role in the production of IL-17, a cytokine that plays pivotal roles in chronic inflammation and autoimmune diseases such as MS and rheumatoid arthritis, and cancer. Therefore, the effects of PIA (SEQ ID NO: 2) on IL-17 production by naïve CD4^+ cells cultured under Th17-polarizing conditions were examined. The CD4^+CD62L^+ T cells were cultured in the presence of anti-CD3/CD28 dynabeads, IL-6, TGF-β1, anti-IFN-γ and anti-IL-4.

Where no end group is shown, it is not given here.

With ACTVGGYE [PIA, ACTVGGYE], the cell viability entry is “no significant effects on cell viability”.
